For test [1], the system named is MCF-7 cells. Kind of test: Total cellular ATP (luciferase assay) in MCF-7 cells. It counts as cell-based, human. The following applies: MCF-7, 10 μg/ml and 20 μg/ml, 2 hours, FIG. 5. The procedure: 1×10^5 MCF-7 cells were plated in 96 well plates. Cells were treated with C75 or vehicle. After 2 hours, ATP was measured using a luciferase assay using the ATP Bioluminescence Kit CLS II (Roche) following the manufacturer's protocol. Plates were read by a Perkin Elmer Wallac Victor^2 1420 luminometer. […] Similar results were obtained after 1 hr incubation with C75. Thus, cellular energy production increased as a result of C75 increasing fatty acid oxidation.

Test [2] has as its target T1, CPT-1 (Homo sapiens, UniProt P50416).
T1 construct: endogenous in cells; host or cells: MCF-7 human breast cancer cells
T1 sequence (P50416 1-773): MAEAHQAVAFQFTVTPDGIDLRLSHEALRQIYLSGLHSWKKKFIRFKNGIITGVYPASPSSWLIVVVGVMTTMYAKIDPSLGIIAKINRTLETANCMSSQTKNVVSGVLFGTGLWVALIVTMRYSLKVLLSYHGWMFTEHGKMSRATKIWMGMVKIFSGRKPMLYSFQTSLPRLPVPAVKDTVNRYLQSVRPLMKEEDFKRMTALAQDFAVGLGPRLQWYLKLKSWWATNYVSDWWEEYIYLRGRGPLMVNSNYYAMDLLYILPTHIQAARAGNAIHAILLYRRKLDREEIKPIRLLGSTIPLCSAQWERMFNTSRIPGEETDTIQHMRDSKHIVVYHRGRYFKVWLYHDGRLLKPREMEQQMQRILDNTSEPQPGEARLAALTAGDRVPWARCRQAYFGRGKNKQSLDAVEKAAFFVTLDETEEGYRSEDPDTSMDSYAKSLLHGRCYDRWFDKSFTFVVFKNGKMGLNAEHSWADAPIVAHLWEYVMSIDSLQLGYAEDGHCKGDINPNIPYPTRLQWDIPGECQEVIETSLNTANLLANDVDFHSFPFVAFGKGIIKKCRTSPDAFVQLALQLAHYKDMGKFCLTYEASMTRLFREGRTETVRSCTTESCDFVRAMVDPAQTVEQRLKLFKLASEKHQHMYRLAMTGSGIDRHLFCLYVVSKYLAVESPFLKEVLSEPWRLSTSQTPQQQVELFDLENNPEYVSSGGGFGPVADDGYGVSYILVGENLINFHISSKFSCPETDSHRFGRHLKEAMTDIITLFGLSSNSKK
Kind of test: CPT-1 activity assay in MCF-7 cells. It counts as cell-based. The procedure:
CPT-1 activity was assayed in MCF-7 cells by the following published procedure: MCF-7 cells were plated in DMEM with 10% fetal bovine serum at 10^6 cells in 24-well plates in triplicate. Following overnight incubation at 37° C., the medium was removed and replaced with 700 μl of assay medium consisting of: 50 mM imidazole, 70 mM KCl, 80 mM sucrose, 1 mM EGTA, 2 mM MgCl2, 1 mM DTT, 1 mM KCN, 1 mM ATP, 0.1% fatty acid free bovine serum albumin, 70 μM palmitoyl-CoA, 0.25 μCi [methyl-^14C]L-carnitine, 40 μg digitonin with or without 20 μM malonyl-CoA. After incubation for 6 minutes at 37° C., the reaction was stopped by the addition of 500 μl of ice-cold 4 M perchloric acid. Cells were then harvested and centrifuged at 13,000×g for 5 min. The pellet was washed with 500 μl ice cold 2 mM perchloric acid and centrifuged again. The resulting pellet was resuspended in 800 μl dH2O and extracted with 150 μl of butanol. The butanol phase was counted by liquid scintillation and represents the acylcarnitine derivative.
MCF-7 cells were treated with C75 at 10 or 20 μg/mL for 1 hr before CPT-1 activity was assayed. The assay was performed with the C75 and malonyl-CoA concentrations indicated (“M” indicates malonyl-CoA at 20 uM). Malonyl-CoA treatment alone caused a 46% reduction in CPT-1 activity similar to the previous experiment (see FIG. 2; p=0.02, two-tailed t-test, Prism 3.0). The level of malonyl-CoA inhibition of the CPT-1 activity is consistent with the activity of the liver isoform of CPT-1 in MCF-7 cells. The Ki of malonyl-CoA for the liver isoform of CPT-1 is ˜7 μM while the Ki for the muscle isoform of CPT-1 is 0.07 μM. Thus, MCF-7 cells express predominantly the liver isoform of CPT-1 (consistent with the immunoblot analysis).
FAS activity was measured by monitoring the malonyl-CoA dependent oxidation of NADPH spectrophotometrically at OD340 in 96-well plates, as described in International Patent Publication WO 2004/005277. The IC50 for the compounds against FAS was determined by plotting the change in OD340 against time for each inhibitor concentration tested and determining the rate of change by linear regression. The concentration of a particular compound yielding 50% inhibition of the rate for FAS in the absence of the compound is the IC50. Stimulation of CPT-1 activity was measured as described in Example 2, except the cells were preincubated with the compound for 2 hours at the concentrations indicated in the table. Stimulation of Fatty acid oxidation was determined as described in Example 1 for cells preincubated with the compounds at the concentrations indicated in the table.

SMILES strings stand for the structures.

For `C=C1C(=O)OC(CCCCCCCC)C1C(=O)O` (stereo not shown) [Compound C75], the “total cellular ATP” value in test [1] is reported as “significant increase”. Also, the “CPT-1 Stimulation (% Control)” value in test [2] (20 μg/mL, cells preincubated 2 hours) was 125 % Control. Besides, the “CPT-1 activity, % of control” value is 166 % of control in test [2] (MCF-7, 20 μg/ml 1 hr before assay, FIG. 4) and 158 % of control in test [2] (MCF-7, 20 μg/ml for one hour before assay, no C75 in the assay buffer, FIG. 3). Moreover, the “CPT-1 stimulation after C75 removed from buffer and malonyl-CoA 20 μM added” value in test [2] (MCF-7, C75 20 μg/ml one hour pretreatment, FIG. 3) is given as “stimulatory activity is lost”. The “difference in CPT-1 activity between C75 and C75 plus malonyl-CoA” value in test [2] (MCF-7, C75 10 or 20 μg/mL 1 hr, malonyl-CoA 20 uM, FIG. 2) is “no statistically significant difference”. Further, in test [2] (MCF-7 cells in vitro), the “stimulated CPT-I activity” value is recorded as 150-160%.

The record behind these values is patent publication US7459481B2, “Stimulation of CPT-1 as a means to reduce weight” (The Johns Hopkins University School of Medicine Licensing …, priority 2002, dated 2008).
